Assay results taken from patent publication US12264158B2, “Protein kinase MKK4 inhibitors for promoting liver regeneration or reducing or preventing hepatocyte death” (HEPAREGENIX GMBH, priority 2018, dated 2025).
pIC50: −log10 of the molar value.

Experiments:
JNK1 = target: T1, JNK1 (Homo sapiens, UniProt P45983); test: KINOMEscan competition binding assay, selectivity against off-target JNK1; settings: concentration of 100 nM
T1 construct: M1/Q384; host or cells: HEK-293
Method in brief: (§1)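 DNA-tagged kinases expressed in HEK-293 cells compete between test compound and immobilized ligand on blocked beads. Bound kinase is eluted and quantified by qPCR of the DNA tag. Compounds were tested at the indicated final concentrations, prepared from 10 mM stocks.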

MEKK2 = target: T2, MEKK2 (Homo sapiens, UniProt Q9Y2U5); test: Radiometric protein kinase assay, MEKK2; type: biochemical; settings: substrate Casein, ATP 0.2 μM; read-out: MEKK2, potency derived from IC50-values
T2 construct: purchased ProQinase #0583-0000-1
T2 sequence (Q9Y2U5 1-619): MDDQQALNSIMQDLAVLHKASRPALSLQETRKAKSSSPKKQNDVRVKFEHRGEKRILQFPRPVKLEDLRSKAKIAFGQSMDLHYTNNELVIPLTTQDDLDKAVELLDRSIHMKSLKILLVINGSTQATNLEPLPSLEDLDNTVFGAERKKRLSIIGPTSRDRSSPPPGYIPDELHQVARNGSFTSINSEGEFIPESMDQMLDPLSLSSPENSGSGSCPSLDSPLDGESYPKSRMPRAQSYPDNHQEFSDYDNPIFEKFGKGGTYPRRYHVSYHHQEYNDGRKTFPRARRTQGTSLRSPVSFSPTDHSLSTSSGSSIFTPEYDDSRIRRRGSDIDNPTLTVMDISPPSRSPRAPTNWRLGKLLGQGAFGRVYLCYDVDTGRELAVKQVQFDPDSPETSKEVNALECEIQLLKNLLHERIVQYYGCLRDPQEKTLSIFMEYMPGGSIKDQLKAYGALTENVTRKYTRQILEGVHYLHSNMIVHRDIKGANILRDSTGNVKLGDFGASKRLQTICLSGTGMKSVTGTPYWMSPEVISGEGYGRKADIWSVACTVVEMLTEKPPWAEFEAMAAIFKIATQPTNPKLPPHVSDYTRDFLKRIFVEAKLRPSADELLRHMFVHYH
Method in brief: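 Kinase activity measured radiometrically: stopped reactions were captured on filter plates, washed with 150 mM H3PO4 and ethanol, and incorporated radioactivity counted by liquid scintillation.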

MKK4 active = target: T3, MKK4 active (Homo sapiens, UniProt P45985); test: Radiometric protein kinase assay, MKK4 active; type: biochemical; settings: substrate JNK1 KRKR, ATP 0.2 μM, read-out: MKK4, potency derived from IC50-values
T3 construct: purchased ProQinase #0948-0000-1
T3 sequence (P45985 1-399): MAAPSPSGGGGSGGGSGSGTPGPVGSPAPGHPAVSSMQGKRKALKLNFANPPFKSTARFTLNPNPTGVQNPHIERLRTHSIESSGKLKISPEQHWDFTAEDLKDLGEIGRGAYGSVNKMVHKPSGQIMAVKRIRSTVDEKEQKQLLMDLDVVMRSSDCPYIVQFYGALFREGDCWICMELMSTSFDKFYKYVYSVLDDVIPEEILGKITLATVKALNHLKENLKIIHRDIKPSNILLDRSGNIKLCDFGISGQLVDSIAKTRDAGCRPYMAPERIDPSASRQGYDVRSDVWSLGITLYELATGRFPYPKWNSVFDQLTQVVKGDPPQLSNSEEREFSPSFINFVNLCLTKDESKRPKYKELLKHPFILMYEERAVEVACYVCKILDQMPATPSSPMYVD
Method: (§2) A radiometric protein kinase assay was used for measuring the kinase activity of the respective protein kinases. All kinase assays were performed in 96-well polypropylene plates. After the reactions were stopped, the assay mixtures were transferred to 96-well MSFC filter-plates (Millipore). The reaction mix was passed through the filter membrane by aspiration, the membrane was washed 3 times with 150 mM H3PO4, once with ethanol, dried and liquid scintillation cocktail was added. Radioactivity was determined by counting of the samples in a Microbeta multiwell scintillation counter (Wallac).

BRaf = BRaf (Homo sapiens, UniProt P15056); test: KINOMEscan competition binding assay, selectivity against off-target BRaf; settings: concentration of 100 nM
Method in brief: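 Competition binding: test compound competes with an immobilized ligand for DNA-tagged BRaf, and kinase captured on the ligand is quantified by qPCR of the DNA tag. Compounds from 10 mM stocks were tested at the indicated final concentrations.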

MKK7 = target: T4, MKK7 (Homo sapiens, UniProt O14733); test: KINOMEscan competition binding assay, selectivity against off-target MKK7; settings: concentration of 100 nM
T4 construct: M1/R419; host or cells: HEK-293
T4 sequence (O14733 1-419): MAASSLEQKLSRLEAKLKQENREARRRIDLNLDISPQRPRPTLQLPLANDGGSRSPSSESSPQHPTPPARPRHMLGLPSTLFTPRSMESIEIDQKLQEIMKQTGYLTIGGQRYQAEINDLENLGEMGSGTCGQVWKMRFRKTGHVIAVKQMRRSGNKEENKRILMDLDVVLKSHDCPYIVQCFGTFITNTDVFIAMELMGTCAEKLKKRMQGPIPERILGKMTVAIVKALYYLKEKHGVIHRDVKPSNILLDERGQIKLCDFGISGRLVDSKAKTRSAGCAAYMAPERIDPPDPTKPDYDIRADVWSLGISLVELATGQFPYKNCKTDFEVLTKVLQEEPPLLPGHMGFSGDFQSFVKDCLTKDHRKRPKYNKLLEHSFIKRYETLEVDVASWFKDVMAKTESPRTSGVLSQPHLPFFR
Method in brief: as §1

MKK4 = target: T5, MKK4 (Homo sapiens, UniProt P45985); test: KINOMEscan competition binding assay, MKK4 potency; settings: concentration of 100 nM
T5 construct: S84/D399; host or cells: HEK-293
T5 sequence (P45985 84-399): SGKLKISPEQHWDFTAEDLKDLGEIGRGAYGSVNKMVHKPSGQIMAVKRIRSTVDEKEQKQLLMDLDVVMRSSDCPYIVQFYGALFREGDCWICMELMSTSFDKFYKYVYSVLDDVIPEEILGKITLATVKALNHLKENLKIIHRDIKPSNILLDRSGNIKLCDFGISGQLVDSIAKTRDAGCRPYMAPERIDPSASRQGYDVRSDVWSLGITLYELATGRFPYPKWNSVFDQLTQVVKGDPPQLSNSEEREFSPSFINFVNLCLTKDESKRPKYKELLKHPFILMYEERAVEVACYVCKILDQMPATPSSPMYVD
Method in brief: as §1

MKK4-MEKK2 mix = target: T6, MKK4-MEKK2 mix (Homo sapiens, UniProt P45985); test: Radiometric protein kinase assay, MEKK2 dependent MKK4 activation (cascade); type: biochemical; settings: substrate JNK1 KRKR, ATP 0.2 μM, read-out: Cascade, potency derived from IC50-values
T6 construct: MEKK2, recombinant, active: ProQinase product #0583-0000-1
T6 sequence (P45985 2-399): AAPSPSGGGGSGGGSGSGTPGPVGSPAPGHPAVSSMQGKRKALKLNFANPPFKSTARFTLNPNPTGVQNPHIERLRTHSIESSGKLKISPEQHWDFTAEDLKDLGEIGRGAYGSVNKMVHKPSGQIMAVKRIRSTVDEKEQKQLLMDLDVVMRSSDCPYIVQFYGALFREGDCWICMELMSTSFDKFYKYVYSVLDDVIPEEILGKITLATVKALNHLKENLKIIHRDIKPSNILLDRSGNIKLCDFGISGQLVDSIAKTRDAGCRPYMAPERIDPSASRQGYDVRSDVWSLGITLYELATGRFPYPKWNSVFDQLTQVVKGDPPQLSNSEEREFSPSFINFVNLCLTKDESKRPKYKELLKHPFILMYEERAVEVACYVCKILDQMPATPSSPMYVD
Method: The activation step is done in 50 mM HEPES pH 7.5, 50 mM NaCl, 3.8 mM MgCl2, 2.5 mM DTT, 10% (v/v) glycerol. Final DMSO concentration is 1%. The activation mixture is pipetted in the following order • 2.5 μl compound in 4% DMSO • 2.5 μl ATP/MgCl2 mix • 5 μl premixed kinase solution MKK4:MEKK2 10:1 (w/w)
Protein concentrations in the activation mix are 1 μM MKK4 and 50 nM MEKK2.
as §2

Chain of BRaf (P15056 whole entry): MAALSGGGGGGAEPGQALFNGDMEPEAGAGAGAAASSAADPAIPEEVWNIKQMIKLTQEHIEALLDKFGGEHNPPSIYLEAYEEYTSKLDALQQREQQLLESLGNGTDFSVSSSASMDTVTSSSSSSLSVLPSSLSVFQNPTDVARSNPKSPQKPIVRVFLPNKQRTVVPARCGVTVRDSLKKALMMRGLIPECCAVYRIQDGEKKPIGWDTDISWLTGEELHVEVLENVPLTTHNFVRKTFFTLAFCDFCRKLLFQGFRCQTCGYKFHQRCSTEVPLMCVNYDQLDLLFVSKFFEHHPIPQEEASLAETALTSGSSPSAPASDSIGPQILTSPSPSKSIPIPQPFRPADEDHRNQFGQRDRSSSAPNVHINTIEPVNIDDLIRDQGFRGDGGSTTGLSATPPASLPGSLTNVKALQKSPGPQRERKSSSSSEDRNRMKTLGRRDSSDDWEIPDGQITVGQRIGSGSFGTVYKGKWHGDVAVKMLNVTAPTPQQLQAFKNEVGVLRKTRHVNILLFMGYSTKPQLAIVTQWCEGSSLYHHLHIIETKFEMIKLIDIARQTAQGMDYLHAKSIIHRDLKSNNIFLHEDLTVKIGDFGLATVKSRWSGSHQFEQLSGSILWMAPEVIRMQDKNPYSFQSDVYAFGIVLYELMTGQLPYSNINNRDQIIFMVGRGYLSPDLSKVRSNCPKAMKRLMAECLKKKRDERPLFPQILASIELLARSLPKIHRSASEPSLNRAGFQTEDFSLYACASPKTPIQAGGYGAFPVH
T1 sequence (P45983 1-384 isoform P45983-2): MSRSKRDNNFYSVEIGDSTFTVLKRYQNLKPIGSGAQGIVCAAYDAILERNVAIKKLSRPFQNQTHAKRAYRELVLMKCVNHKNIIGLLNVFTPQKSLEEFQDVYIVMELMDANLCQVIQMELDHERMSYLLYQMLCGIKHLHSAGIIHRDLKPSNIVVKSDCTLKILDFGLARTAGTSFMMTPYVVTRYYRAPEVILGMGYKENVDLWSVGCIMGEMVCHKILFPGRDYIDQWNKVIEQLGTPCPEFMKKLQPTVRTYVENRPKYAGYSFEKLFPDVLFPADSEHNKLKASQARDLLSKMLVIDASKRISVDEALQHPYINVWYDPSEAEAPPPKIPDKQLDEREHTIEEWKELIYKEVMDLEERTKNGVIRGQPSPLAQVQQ

Selectivity vs. JNK1, ratio PoC(JNK1)/PoC(MKK4) (JNK1) | pIC50 (MEKK2) | pIC50 (MKK4 active) | Selectivity vs. BRaf, ratio PoC(BRaf)/PoC(MKK4) (BRaf) | Selectivity vs. MKK7, ratio PoC(MKK7)/PoC(MKK4) (MKK7) | MKK4, residual percent of control binding (PoC) (MKK4) | pIC50 (MKK4-MEKK2 mix) | SMILES
+++ (PoC(JNK1)/PoC(MKK4) ≥ 30) | 5.00 to 6.00 | > 6.30 | ++ (30 > PoC(BRaf)/PoC(MKK4) ≥ 10) | +++ (PoC(MKK7)/PoC(MKK4) ≥ 30) | +++ (PoC < 1) | 6.00 to 6.30 | CCCS(=O)(=O)Nc1ccc(F)c(C(=O)c2n[nH]c3ncc(-c4ccc(N)cc4)cc23)c1F [Example 18, N-(3-(5-(4-aminophenyl)-1H-pyrazolo[3,4-b]pyridine-3-carbonyl)-2,4-difluorophenyl)-propane-1-sulfonamide]
+++ (PoC(JNK1)/PoC(MKK4) ≥ 30) | 5.00 to 6.00 | > 6.30 | ++ (30 > PoC(BRaf)/PoC(MKK4) ≥ 10) | +++ (PoC(MKK7)/PoC(MKK4) ≥ 30) | +++ (PoC < 1) | 5.00 to 6.00 | CCCS(=O)(=O)Nc1ccc(F)c(C(=O)c2n[nH]c3ncc(-c4ccc(O)cc4)cc23)c1F [Example 19, N-(2,4-difluoro-3-(5-(4-hydroxyphenyl)-1H-pyrazo-lo[3,4-b]pyridine-3-carbonyl)-phenyl)propane-1-sulfon-amide]
+ (10 > PoC(JNK1)/PoC(MKK4) ≥ 3) | 5.00 to 6.00 | 6.00 to 6.30 | + (10 > PoC(BRaf)/PoC(MKK4) ≥ 3) | ++ (30 > PoC(MKK7)/PoC(MKK4) ≥ 10) | ++ (1 ≤ PoC < 10) | 5.00 to 6.00 | CCCS(=O)(=O)Nc1ccc(F)c(C(=O)c2n[nH]c3ncc(-c4ccccc4O)cc23)c1F [Example 21, N-(2,4-difluoro-3-(5-(2-hydroxyphenyl)-1H-pyrazo-lo[3,4-b]pyridine-3-carbonyl)-phenyl)propane-1-sulfon-amide]
++ (30 > PoC(JNK1)/PoC(MKK4) ≥ 10) | < 5.00 | < 5.00 | + (10 > PoC(BRaf)/PoC(MKK4) ≥ 3) | ++ (30 > PoC(MKK7)/PoC(MKK4) ≥ 10) | ++ (1 ≤ PoC < 10) | < 5.00 | CCCS(=O)(=O)Nc1ccc(F)c(C(=O)c2n[nH]c3ncc(-c4ccc([N+](=O)[O-])cc4)cc23)c1F [Example 23, N-(2,4-difluoro-3-(5-(4-nitrophenyl)-1H-pyrazolo-[3,4-b]pyridine-3-carbonyl)-phenyl)propane-1-sulfon-amide]
+++ (PoC(JNK1)/PoC(MKK4) ≥ 30) | < 5.00 | 6.00 to 6.30 | O (PoC(BRaf)/PoC(MKK4) < 3) | +++ (PoC(MKK7)/PoC(MKK4) ≥ 30) | ++ (1 ≤ PoC < 10) | < 5.00 | CCCS(=O)(=O)Nc1ccc(F)c(C(=O)c2n[nH]c3ncc(-c4ccc(S(C)(=O)=O)cc4)cc23)c1F [Example 24, N-(2,4-difluoro-3-(5-(4-(methylsulfonyl)phenyl)-1H-pyrazolo[3,4-b]pyridine-3-carbonyl)phenyl)propane-1-sulfonamide]
+++ (PoC(JNK1)/PoC(MKK4) ≥ 30) | < 5.00 | 6.00 to 6.30 | ++ (30 > PoC(BRaf)/PoC(MKK4) ≥ 10) | +++ (PoC(MKK7)/PoC(MKK4) ≥ 30) | ++ (1 ≤ PoC < 10) | 5.00 to 6.00 | CCCS(=O)(=O)Nc1ccc(F)c(C(=O)c2n[nH]c3ncc(-c4ccc(F)cc4)cc23)c1F [Example 25, N-(2,4-difluoro-3-(5-(4-fluorophenyl)-1H-pyrazo-lo[3,4-b]pyridine-3-carbonyl)-phenyl)propane-1-sulfon-amide]
+++ (PoC(JNK1)/PoC(MKK4) ≥ 30) | 5.00 to 6.00 | > 6.30 | O (PoC(BRaf)/PoC(MKK4) < 3) | +++ (PoC(MKK7)/PoC(MKK4) ≥ 30) | ++ (1 ≤ PoC < 10) | 6.00 to 6.30 | CCCS(=O)(=O)Nc1ccc(F)c(C(=O)c2n[nH]c3ncc(-c4cccc(N)c4)cc23)c1F [Example 27, N-(3-(5-(3-aminophenyl)-1H-pyrazolo[3,4-b]pyridine-3-carbonyl)-2,4-difluorophenyl)-propane-1-sulfonamide]
+++ (PoC(JNK1)/PoC(MKK4) ≥ 30) | 5.00 to 6.00 | > 6.30 | ++ (30 > PoC(BRaf)/PoC(MKK4) ≥ 10) | +++ (PoC(MKK7)/PoC(MKK4) ≥ 30) | ++ (1 ≤ PoC < 10) | 5.00 to 6.00 | CCCS(=O)(=O)Nc1ccc(F)c(C(=O)c2n[nH]c3ncc(-c4ccccc4F)cc23)c1F [Example 31, N-(2,4-difluoro-3-(5-(2-fluorophenyl)-1H-pyrazo-lo[3,4-b]pyridine-3-carbonyl)phenyl)propane-1-sulfon-amide]
